Laboratory results as given in patent US11851681B2, “Cell preparation method” (KYOTO PREFECTURAL PUBLIC UNIVERSITY CORPORATION, priority 2015, dated 2023).
“Also recorded” adds a separate entry of the source.

Legend:
Format in all cases: cell-based
[1] = tested on: human dermal fibroblasts; HDFs; assay: Real-time RT-PCR of Sox9 and Aggrican in cartilage induction medium, Example 8; conditions: ALK5 inhibitor II 2 μM, Cyclic Pifithrin-α 5 μM, day 18, FIG. 8
Method: The concentrations of the compounds are as follows: • Cyclic Pifithrin-α: 5 μM • ALK5 inhibitor II: 2 μM.

[2] = tested on: Human Epidermal Keratinocyte; NHEK (AD); assay: Real-time RT-PCR of UCP1 and CIDEA, keratinocyte to brown adipocyte, Example 43; conditions: K-adipocyte induction medium; ALK5 inhibitor II 4 μM or LY2157299 8 μM, Day 1 to Day 8; day 14; FIG. 47
Method: Normal human epidermal keratinocyte (Human Epidermal Keratinocyte; NHEK (AD)) were suspended in a serum-free liquid medium for normal human epidermal keratinocyte proliferation (HuMedia-KG2; manufactured by Kurabo).
The K-adipocyte induction medium is HuMedia-KG2 added with 1 nM T3, 1 μM Rosiglitazone, 0.5 mM 3-isobutyl-1-methylxanthine (IBMX), 0.5 μM dexamethasone, and 1 μg/mL Insulin.
Once every 2 days, the culture medium was exchanged with a fresh one, and culturing was performed from Day 1 to Day 8. Thereafter, from Day 9 to Day 14, the cells were cultured in a medium free of ALK5 inhibitor II or LY2157299. On day 14, the culture medium was removed by suction from each well, washed with PBS(−) and total RNA was extracted from the cells by using RNA easy Mini Kit manufactured by Qiagen. cDNA was synthesized from the RNA by using Rever Tra Ace qPCR RT Master Mix. This cDNA was admixed with Real-time PCR Master Mix, primers specific to UCP-1 gene, CIDEA gene or β actin gene and Taqman probe. qRT-PCR was performed using AB7300 Real-time PCR system. The mRNA level of UCP1 gene and CIDEA gene was quantified as a ratio to β-actin gene mRNA level, and calculated with the value of fibroblast cultured in the general medium as 1.

[3] = tested on: Human normal skin-derived fibroblasts (HDFs); assay: Real-time RT-PCR of UCP1, four inhibitors, Example 39
Method: The addition concentration of the compound was 4 μM, 8 μM, 12 μM or 16 μM. […] Thereafter, in Day 9-Day 14, culturing was performed in a medium free of ALK5 inhibitor II, LY2157299, SB431542, D4476.

[4] = tested on: Human normal skin-derived fibroblasts (HDFs); assay: Immunostaining of UCP1, four inhibitors, Example 40; conditions: LY2157299 8 μM, SB431542 4 μM, D4476 4 μM, Day 1 to Day 8, day 14, FIG. 44
Method: Human normal skin-derived fibroblasts (HDFs) were suspended in a general medium (DMEM added with 10% FBS). […] The adipocyte induction medium is DMEM added with 1 nM T3, 1 μM Rosiglitazone, 0.5 mM 3-isobutyl-1-methylxanthine (IBMX), 0.5 μM dexamethasone, 1 μg/mL Insulin and 10% FBS. Once every 2 days, the culture medium was exchanged with a fresh one, and culturing was performed from Day 1 to Day 8. Thereafter, from Day 9 to Day 14, the cells were cultured in an adipocyte induction medium free of ALK5 inhibitor II, LY2157299, SB431542, D4476. On day 14, the culture medium was removed by suction from each well, and washed with PBS(−). After fixing with 4% para-formaldehyde, the well was washed with PBS (−), Permanent wave Buffer (0.2% Triton-X addition PBS) was added and the well was incubated for 15 min. After washing 3 times with PBS(−), Blocking One was added, and the mixture was incubated at room temperature for 60 min. Anti-UCP-1 antibody (RD MAB6158) was added and the mixture was reacted for 2 hrs at room temperature, and washed 3 times with Wash buffer. CF488-conjugated anti-mouse Ig antibody (Biotum 20014) was added and the mixture was reacted for 2 hrs at room temperature, and washed 3 times with PBS(−). After nuclear staining with SlowFade Gold antifade reagent with DAPI manufactured by Lifetechnology, the cells were photographed with a fluorescence microscope at ×100 magnification.

[5] = tested on: Human normal skin-derived fibroblasts (HDFs); assay: Real-time RT-PCR of UCP1, CIDEA, KCNK3, Example 41; conditions: ALK5 inhibitor II or LY2157299 (8 μM), Day 1 to Day 8; day 14; FIG. 45
Method: Human normal skin-derived fibroblasts (HDFs) were suspended in a general medium (DMEM added with 10% FBS). […] The adipocyte induction medium is DMEM added with 1 nM T3, 1 μM Rosiglitazone, 0.5 mM 3-isobutyl-1-methylxanthine (IBMX), 0.5 μM dexamethasone, 1 μg/mL Insulin and 10% FBS. Once every 2 days, the culture medium was exchanged with a fresh one, and culturing was performed from Day 1 to Day 8. Thereafter, from Day 9 to Day 14, the cells were cultured in an adipocyte induction medium free of ALK5 inhibitor II or LY2157299. On day 14, the culture medium was removed by suction from each well, washed with PBS(−) and total RNA was extracted from the cells by using RNA easy Mini Kit manufactured by Qiagen. cDNA was synthesized from the RNA by using Rever Tra Ace qPCR RT Master Mix. This cDNA was admixed with Real-time PCR Master Mix, primers specific to UCP-1 gene, CIDEA gene, KCNK3 gene or β actin gene and Taqman probe. qRT-PCR was performed using AB7300 Real-time PCR system. The mRNA level of UCP1 gene was quantified as a ratio to β-actin gene mRNA, and calculated with the value of fibroblast cultured in the general medium as 1.

[6] = tested on: human dermal fibroblasts; HDFs; assay: Bodipy staining in WA medium, four inhibitors, Example 48; conditions: day 12, FIG. 52
[7] = tested on: human dermal fibroblasts; HDFs; assay: Bodipy staining quantification in WA medium, four inhibitors, Example 49; conditions: 16 μM compound and 1 μM Rosiglitazone, day 12, FIG. 53
[8] = tested on: human dermal fibroblasts; HDFs; assay: Real-time PCR of AdipoQ, FABP4, PPAR-γ, four inhibitors with Rosiglitazone, Example 50; conditions: WA medium added with 1 μM Rosiglitazone and 16 μM compound; day 12
Source text: On day 12, RNA was recovered from the cells and, in the same manner as in Example 47, mRNA of AdipoQ, FABP4 (mature adipocyte marker), and PPAR-γ (preadipocyte marker) was quantified.

Structure (SMILES)	conversion of fibroblast to chondrocyte, Sox9 and Aggrican mRNA [1]	conversion of epidermal keratinocyte to brown adipocyte, UCP1 and CIDEA mRNA [2]	conversion of fibroblast to brown adipocyte, UCP1 mRNA ([3]; 4 μM, 8 μM, 12 μM or 16 μM in adipocyte induction medium Day 1 to Day 8, then compound-free to day 14, FIG. 43)	efficiency in converting fibroblast to brown adipocyte (summary statement) ([3]; description, conditions not given)	conversion of fibroblast to brown adipocyte, UCP1 protein ([4]; ALK5 inhibitor II 4 μM)	staining with anti-UCP1 antibody ([4]; groups 3-6: ALK5 inhibitor II 4 μM)	conversion of fibroblast to brown adipocyte, UCP1, CIDEA and KCNK3 mRNA [5]	lipid droplets stained with Bodipy, inhibitor alone ([6]; WA medium added with 16 μM compound alone)	lipid droplets stained with Bodipy / conversion to white adipocyte, inhibitor and Rosiglitazone ([6]; WA medium added with 16 μM compound and 1 μM Rosiglitazone)	fat accumulation (BODIPY) / conversion to white adipocyte, co-addition of Rosiglitazone [7]	conversion of human fibroblast to white adipocyte (mRNA markers) [8]
Cc1ccc(-c2cn3c4c(sc3n2)CCCC4)cc1 [Cyclic Pifithrin-α]	does not promote conversion of fibroblast to chondrocyte										
Cc1cccc(-c2nn3c(c2-c2ccnc4ccc(C(N)=O)cc24)CCC3)n1 [LY2157299, 4-[5,6-dihydro-2-(6-methyl-2-pyridinyl)-4H-pyrrolo[1,2-b]pyrazol-3-yl]-6-quinolinecarboxamide]		converted normal human epidermal keratinocyte to brown adipocyte expressing UCP1 gene and CIDEA gene	converted fibroblast to brown adipocyte strongly expressing UCP1 gene; also recorded: secondly	highly efficient in converting fibroblast to brown adipocyte	converted fibroblast to brown adipocyte expressing UCP1 protein; also recorded: secondly	many cells were stained with anti-UCP1 antibody; also recorded: the second highest	converted fibroblast to brown adipocyte expressing UCP1 gene, CIDEA gene and KCNK3 gene	only a few cells contained lipid droplets stained with Bodipy	many cells were stained	more strongly induced fat accumulation than by the addition of Rosiglitazone alone	converted human fibroblast to white adipocyte
